By Kb is commonly meant the equilibrium dissociation constant of an antagonist, usually derived from a functional assay.

We go through one compound from patent publication US7514562B2, “Urea derivatives and their use as vanilloid receptor antagonists in the treatment of pain” (Glaxo Group Limited, priority 2003, dated 2009).

The target of the test is T1, human VR1 (Homo sapiens, UniProt Q8NER1).
T1 construct: expressed in transfected cells
Kind of test: FLIPR based calcium assay, antagonism of capsaicin response in 1321N1 cells stably expressing human VR1. Format: cell-based. The settings on record: transfected astrocytoma 1321N1 cells, 30 min pre-incubation, capsaicin challenge; pKb generated from IC50 using the Cheng-Prusoff equation. The procedure: The plates were then washed 4 times with Tyrode containing 1.5 mM calcium, without probenecid. […] Capsaicin (Sigma) was then added to the cells. Compounds having antagonist activity against the human VR1 were identified by detecting differences in fluorescence when measured after capsaicin addition, compared with no compound buffer controls.

T1 sequence (Q8NER1 whole entry): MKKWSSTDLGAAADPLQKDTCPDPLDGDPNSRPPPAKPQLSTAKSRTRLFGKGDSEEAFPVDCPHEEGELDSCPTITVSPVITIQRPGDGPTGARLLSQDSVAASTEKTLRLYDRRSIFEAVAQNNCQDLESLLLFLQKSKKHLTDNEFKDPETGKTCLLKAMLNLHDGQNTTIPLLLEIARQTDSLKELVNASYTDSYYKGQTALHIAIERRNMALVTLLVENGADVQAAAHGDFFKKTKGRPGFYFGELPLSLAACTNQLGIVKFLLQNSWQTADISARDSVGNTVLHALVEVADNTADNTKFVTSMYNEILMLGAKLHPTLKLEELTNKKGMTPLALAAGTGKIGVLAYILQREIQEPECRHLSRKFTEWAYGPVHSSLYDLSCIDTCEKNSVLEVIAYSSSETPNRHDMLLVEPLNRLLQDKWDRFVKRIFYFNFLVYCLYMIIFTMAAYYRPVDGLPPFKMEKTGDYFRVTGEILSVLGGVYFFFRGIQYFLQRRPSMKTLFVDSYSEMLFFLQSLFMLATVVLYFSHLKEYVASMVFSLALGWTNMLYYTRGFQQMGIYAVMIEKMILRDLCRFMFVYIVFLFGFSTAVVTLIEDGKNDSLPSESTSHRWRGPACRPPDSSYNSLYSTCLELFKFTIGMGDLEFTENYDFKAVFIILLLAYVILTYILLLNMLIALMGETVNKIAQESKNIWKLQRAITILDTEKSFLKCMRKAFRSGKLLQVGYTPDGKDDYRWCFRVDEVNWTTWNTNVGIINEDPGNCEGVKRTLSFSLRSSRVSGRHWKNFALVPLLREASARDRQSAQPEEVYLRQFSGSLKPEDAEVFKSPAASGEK

With `Cc1cc2c(NC(=O)NC3CN(c4ccc(C(F)(F)F)cn4)C3)cccc2nn1` [Example 16], the antagonist dissociation constant (Kb) was < 100 nM.
